Legend:
Assay in all cases: drug sensitivity score (DSS3, normalised partial AUC of % inhibition dose-response) (DSS (score)); higher = more sensitive (stronger inhibition of viability); extreme values may be limits of the assay
Conditions in all cases: 72 h; library: FO5A; assay format: 2D, 384-well, CellTiter-Glo
FMOC02_2 = test system: FMOC02_2 (patient-derived low-grade serous ovarian cancer cells)
Method in brief: (§1)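 Cells were dispensed onto 384-well flat clear-bottom plates already holding compounds at five concentrations over a 10,000-fold range, using patient-derived ovarian cancer cells at passage under 10. Incubation lasted 72 h at 37 °C in 5% CO2, after which CellTiter-Glo viability data were processed in Breeze. Higher drug sensitivity scores, each a partial area under the percent-inhibition dose-response curve divided by the log of the upper asymptote, mean more sensitive cells.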

FMOC02_3 = test system: FMOC02_3 (patient-derived low-grade serous ovarian cancer cells)
Method in brief: as §1

FMOC03 = test system: FMOC03 (patient-derived mucinous ovarian cancer cells)
Method in brief: as §1

FMOC06 = test system: FMOC06 (patient-derived mucinous ovarian cancer cells)
Method in brief: as §1

FMOC09 = test system: FMOC09 (patient-derived high-grade serous ovarian cancer cells)
Method in brief: as §1

FMOC14 = test system: FMOC14 (patient-derived high-grade serous ovarian cancer cells)
Method in brief: as §1

FMOC22 = test system: FMOC22 (patient-derived mucinous ovarian cancer cells)
Method in brief: as §1

FMOC24 = test system: FMOC24 (patient-derived high-grade serous ovarian cancer cells)
Method in brief: as §1

FMOC25_2 = test system: FMOC25_2 (patient-derived low-grade serous ovarian cancer cells)
Method in brief: as §1

SMILES	drug sensitivity score (FMOC02_2)	drug sensitivity score (FMOC02_3)	drug sensitivity score (FMOC03)	drug sensitivity score (FMOC06)	drug sensitivity score (FMOC09)	drug sensitivity score (FMOC14)	drug sensitivity score (FMOC22)	drug sensitivity score (FMOC24)	drug sensitivity score (FMOC25_2)
CC(=O)c1cc2c(o1)C(=O)c1ccccc1C2=O [Napabucasin]	18.3	17.9	18.2	14.7	19.2	18.2	18.5	17.5	15
CCN1C(=O)CNc2ncc(-c3ccc(-c4nc[nH]n4)nc3C)nc21 [CC-115]	14.2	9.5	8	10.9	6.7	8.9	6.3	6.2	16
COc1cccc2c1C(=O)c1c(O)c3c(c(O)c1C2=O)C[C@@](O)(C(=O)CO)C[C@@H]3O[C@H]1C[C@H](N)[C@@H](O)[C@H](C)O1 [Epirubicin]	3.9	7	4.3	4.2	5.2	3.8	5.7	4.8	8.2
C[C@@H]1COCCN1c1cc(C2([S@](C)(=N)=O)CC2)nc(-c2cc[nH]c3nccc2-3)n1 [AZD6738]	7.8	11.1	5	6.9	7.7	10.7	7.4	8	12.5
CC(=O)c1cnc2ccc(-c3cc(Cl)c(O)c(Cl)c3)nc2c1N[C@H]1CC[C@H](CN(C)C)CC1 [OTS167]	13.5	12.6	7.7	6.3	13.1	13	7.2	12.8	15.1
C=C1C[C@@H]2CC[C@@]34C[C@H]5O[C@H]6[C@@H](O3)[C@H]3O[C@H](CC[C@@H]3O[C@H]6[C@H]5O4)CC(=O)C[C@@H]3[C@@H](OC)[C@@H](C[C@H](O)CN)O[C@H]3C[C@H]3O[C@@H](CC[C@@H]1O2)C[C@@H](C)C3=C [Eribulin]	14.9	19.2	18	12.1	13.1	0	15.5	0.6	15.1
CN(C)CC#Cc1ccc(OCCCc2sc(N3CCc4cccc(C(=O)Nc5nc6ccccc6s5)c4C3)nc2C(=O)O)c(F)c1	27.6	34	20.7	25.5	9.7	21.3	13.5	36.8	33.4
CC(C)(C)c1cc(NC(=O)Nc2ccc(Oc3ccnc4[nH]c(=O)cnc34)cc2F)n(-c2ccccc2)n1	0.2	7.1	5.3	3.6	3	0.1	3.8	1.6	17.8
CN[C@@H](C)C(=O)N[C@H](C(=O)N1CCC[C@H]1c1nc(C(=O)c2ccc(F)cc2)cs1)C1CCCCC1 [NVP-LCL161]	1.7	1.9	3.9	10.9	0	7.1	0.6	32.1	9.8
CCS(=O)(=O)Nc1ccc(Oc2ccc(F)cc2F)c(-c2cn(C)c(=O)c3[nH]ccc23)c1 [Mivebresib]	20.3	30.3	13.9	16.6	10.9	11.7	11.7	17.6	16.4
COc1ccc2[nH]cc(/C=C3\C(=O)Nc4ccc(NC(=O)CCN5CCCCC5)cc43)c2c1	12.7	10.8	7.6	6.4	5.4	5.1	6.1	12.7	8.6
C[C@H]1O[C@@H](O[C@H]2[C@@H](O)C[C@H](O[C@H]3[C@@H](O)C[C@H](O[C@H]4CC[C@@]5(C)[C@H](CC[C@@H]6[C@@H]5C[C@@H](O)[C@]5(C)[C@@H](C7=CC(=O)OC7)CC[C@]65O)C4)O[C@@H]3C)O[C@@H]2C)C[C@H](O)[C@@H]1O [Digoxin]	11.1	14.4	9.6	10.7	14.3	10.3	9.7	17.1	18.3
CC(C)C[C@H](NC(=O)CNC(=O)c1cc(Cl)ccc1Cl)B(O)O [Ixazomib]	14.3	6	15.1	12.1	6.8	15.3	16.6	16.8	14.5
Cc1ccc(NS(=O)(=O)c2cccc(C#N)c2)c2[nH]cc(C#N)c12 [E7820]	4.4	10.1	3.9	1.5	12.4	4.5	10.5	16.3	7.4
Cc1[nH]nc(C(F)(F)F)c1Cc1sc2c(c1C(=O)N1C[C@](C)(O)CO1)c(=O)n(C)c(=O)n2C(C)C [AZD3965]	0	0.8	0	0	0	0	0	1.5	0
Cc1c(-c2ccc(N3CCc4cccc(C(=O)Nc5nc6ccccc6s5)c4C3)nc2C(=O)O)cnn1CC12CC3CC(CC(C3)C1)C2	14.5	26.7	12.5	16.8	3.1	8.8	5.7	23	24
CNC(=O)c1cccc(-c2ccc3c(N4CCOC[C@@H]4C)nc(N4CCOC[C@@H]4C)nc3n2)c1 [Vistusertib]	20.9	21.6	13.1	14.8	8.9	12.6	9.7	8.35	18.2
Cc1sc2c(c1C)C(c1ccc(Cl)cc1)=N[C@@H](CC(=O)Nc1ccc(O)cc1)c1nnc(C)n1-2 [Birabresib]	13.5	18.5	5.5	5.1	3.6	1.1	6.7	7.65	8.5

From the supplement of paper PMC9938120
